± gives the expanded uncertainty stated by the source.
Conditions: Gas

FC(C(F)(F)F)C(F)(F)F [1,1,1,2,3,3,3-heptafluoropropane]
Conditions | mass density [kg/m3]
318.15 K, 122.2 kPa | 8.07 ± 0.1
318.15 K, 167.7 kPa | 11.21 ± 0.11
318.15 K, 230.1 kPa | 15.57 ± 0.11
318.15 K, 312 kPa | 21.61 ± 0.12
318.15 K, 421 kPa | 30.01 ± 0.13
318.15 K, 561.3 kPa | 41.67 ± 0.15
318.15 K, 734.2 kPa | 57.85 ± 0.17
321.15 K, 123.2 kPa | 8.06 ± 0.1
321.15 K, 169.3 kPa | 11.2 ± 0.1
321.15 K, 232.2 kPa | 15.54 ± 0.11
321.15 K, 315.4 kPa | 21.58 ± 0.12
321.15 K, 425.5 kPa | 29.97 ± 0.13
321.15 K, 568 kPa | 41.61 ± 0.15
321.15 K, 744.1 kPa | 57.77 ± 0.16
324.15 K, 124.4 kPa | 8.05 ± 0.1
324.15 K, 170.9 kPa | 11.18 ± 0.1
324.15 K, 234.2 kPa | 15.53 ± 0.11
324.15 K, 318.6 kPa | 21.56 ± 0.12
324.15 K, 430.2 kPa | 29.93 ± 0.13
324.15 K, 574.9 kPa | 41.56 ± 0.14
324.15 K, 754 kPa | 57.71 ± 0.16
327.15 K, 125.7 kPa | 8.04 ± 0.1
327.15 K, 172.6 kPa | 11.17 ± 0.1
327.15 K, 236.2 kPa | 15.51 ± 0.11
327.15 K, 321.9 kPa | 21.53 ± 0.11
327.15 K, 434.8 kPa | 29.9 ± 0.12
327.15 K, 581.5 kPa | 41.52 ± 0.14
327.15 K, 763.9 kPa | 57.65 ± 0.17
327.15 K, 982.1 kPa | 80.04 ± 0.2
330.15 K, 126.8 kPa | 8.04 ± 0.1
330.15 K, 132 kPa | 8.39 ± 0.1
330.15 K, 174.3 kPa | 11.16 ± 0.1
330.15 K, 181.5 kPa | 11.64 ± 0.1
330.15 K, 238.5 kPa | 15.5 ± 0.11
330.15 K, 248.3 kPa | 16.17 ± 0.11
330.15 K, 325.2 kPa | 21.51 ± 0.11
330.15 K, 338.6 kPa | 22.45 ± 0.11
330.15 K, 439.5 kPa | 29.87 ± 0.12
330.15 K, 457.7 kPa | 31.17 ± 0.12
330.15 K, 588.3 kPa | 41.48 ± 0.13
330.15 K, 611.2 kPa | 43.28 ± 0.14
330.15 K, 774.3 kPa | 57.59 ± 0.15
330.15 K, 803.6 kPa | 60.09 ± 0.16
330.15 K, 998.1 kPa | 79.97 ± 0.2
333.15 K, 128 kPa | 8.03 ± 0.1
333.15 K, 175.9 kPa | 11.15 ± 0.1
333.15 K, 240.7 kPa | 15.48 ± 0.1
333.15 K, 328.6 kPa | 21.5 ± 0.11
333.15 K, 444.3 kPa | 29.85 ± 0.12
333.15 K, 595.3 kPa | 41.45 ± 0.14
333.15 K, 784.6 kPa | 57.55 ± 0.16
333.15 K, 1013.2 kPa | 79.91 ± 0.19
336.15 K, 129 kPa | 8.03 ± 0.1
336.15 K, 177.7 kPa | 11.14 ± 0.1
336.15 K, 243.4 kPa | 15.47 ± 0.1
336.15 K, 331.9 kPa | 21.49 ± 0.11
336.15 K, 449.1 kPa | 29.83 ± 0.12
336.15 K, 602.5 kPa | 41.42 ± 0.14
336.15 K, 795.1 kPa | 57.52 ± 0.16
336.15 K, 1029.1 kPa | 79.86 ± 0.19
339.15 K, 130.1 kPa | 8.02 ± 0.1
339.15 K, 179.3 kPa | 11.14 ± 0.1
339.15 K, 245.7 kPa | 15.47 ± 0.1
339.15 K, 334.9 kPa | 21.48 ± 0.11
339.15 K, 454.4 kPa | 29.82 ± 0.12
339.15 K, 609.6 kPa | 41.4 ± 0.13
339.15 K, 804.6 kPa | 57.49 ± 0.16
339.15 K, 1044.6 kPa | 79.83 ± 0.2
339.15 K, 1310.5 kPa | 110.84 ± 0.24
342.15 K, 131.3 kPa | 8.02 ± 0.09
342.15 K, 181.1 kPa | 11.14 ± 0.1
342.15 K, 248.2 kPa | 15.46 ± 0.1
342.15 K, 338.6 kPa | 21.47 ± 0.11
342.15 K, 459.3 kPa | 29.81 ± 0.12
342.15 K, 616.9 kPa | 41.39 ± 0.13
342.15 K, 815 kPa | 57.47 ± 0.16
342.15 K, 1059.6 kPa | 79.8 ± 0.2
342.15 K, 1333.9 kPa | 110.8 ± 0.24
345.15 K, 132.5 kPa | 8.02 ± 0.09
345.15 K, 182.4 kPa | 11.13 ± 0.1
345.15 K, 250.2 kPa | 15.46 ± 0.1
345.15 K, 341.9 kPa | 21.47 ± 0.11
345.15 K, 464 kPa | 29.81 ± 0.12
345.15 K, 624.2 kPa | 41.39 ± 0.13
345.15 K, 826.2 kPa | 57.46 ± 0.15
345.15 K, 1074.6 kPa | 79.79 ± 0.19
345.15 K, 1358 kPa | 110.79 ± 0.23
380.15 K, 269.4 kPa | 14.93 ± 0.09
380.15 K, 369.5 kPa | 20.73 ± 0.09
380.15 K, 503.4 kPa | 28.78 ± 0.1
380.15 K, 683 kPa | 39.96 ± 0.11
380.15 K, 918.3 kPa | 55.48 ± 0.13
380.15 K, 1215.9 kPa | 77.04 ± 0.16
380.15 K, 1582.9 kPa | 106.97 ± 0.21
380.15 K, 2004.6 kPa | 148.52 ± 0.28
380.15 K, 2446.1 kPa | 206.22 ± 0.4
380.15 K, 2832.9 kPa | 286.34 ± 0.53

From the NIST ThermoML archive (doi:10.1021/je025582+)
